# According to US20180371044A1, “PEPTIDOMIMETIC MACROCYCLES” (Aileron Therapeutics, Inc., priority 2015, published 2018):
# Where a SMILES comes first, the peptide text is derived from it. Bridges are numbered along the chain shown (N, C = ends). [ ]: non-standard residue; d: D form. NMeY = CN[C@@H](Cc1ccc(O)cc1)C(=O)O; R8 = C=CCCCCCC[C@@](C)(N)C(=O)O; S5 = C=CCCC[C@](C)(N)C(=O)O; Nle = CCCC[C@H](N)C(=O)O; Aib = CC(C)(N)C(=O)O
# Target: T1, human GHRH receptor (hGHRHR) (Homo sapiens, UniProt Q02643)
# T1 construct: expressed in transfected cells; host or cells: Human 293 cells
# T1 sequence (Q02643 23-423): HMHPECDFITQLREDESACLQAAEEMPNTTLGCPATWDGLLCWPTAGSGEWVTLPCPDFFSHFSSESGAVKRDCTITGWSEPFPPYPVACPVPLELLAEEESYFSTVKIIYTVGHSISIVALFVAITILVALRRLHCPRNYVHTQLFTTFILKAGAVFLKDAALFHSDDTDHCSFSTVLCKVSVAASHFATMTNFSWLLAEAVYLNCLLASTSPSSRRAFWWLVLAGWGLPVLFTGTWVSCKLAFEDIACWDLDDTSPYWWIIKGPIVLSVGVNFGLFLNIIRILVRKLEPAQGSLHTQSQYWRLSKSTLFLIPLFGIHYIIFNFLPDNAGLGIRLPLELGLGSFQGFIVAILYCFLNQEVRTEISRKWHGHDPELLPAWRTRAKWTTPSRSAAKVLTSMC
# Assay: GHRHR agonism measured by cAMP (HTRF) in human 293 cells expressing hGHRHR;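 further: receptor expressed transiently or stably, cells stimulated in serum-free medium, EC50 from a non-linear dose-response fit, maximal response defined by reference GHRH stimulation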
# Format: cell-based
# Details: 30 min at RT
row,SMILES,EC50
1,CCCC[C@H](NC(=O)[C@@H](NC(=O)[C@H](CC(=O)O)NC(=O)[C@H](CCC(N)=O)NC(=O)[C@H](CC(C)C)NC(=O)[C@H](C)NC(=O)[C@H](CCCCN)NC(=O)[C@H](CCCNC(=N)N)NC(=O)[C@H](C)NC(=O)[C@H](CO)NC(=O)[C@H](CC(C)C)NC(=O)[C@H](CCC(N)=O)NC(=O)[C@H](C)NC(=O)[C@H](CC(C)C)NC(=O)[C@@H](NC(=O)[C@H](CCCCN)NC(=O)[C@H](CCCNC(=N)N)NC(=O)[C@H](Cc1ccc(O)cc1)NC(=O)[C@H](CO)NC(=O)[C@H](C)NC(=O)[C@@H](NC(=O)[C@H](Cc1ccccc1)NC(=O)[C@@H](NC(=O)[C@H](C)NC(=O)[C@H](CC(=O)O)NC(=O)[C@H](C)NC(=O)[C@H](Cc1ccc(O)cc1)NC(C)=O)[C@@H](C)CC)[C@@H](C)O)C(C)C)[C@@H](C)CC)C(=O)N[C@@H](CO)C(=O)N[C@@H](CCCNC(=N)N)C(N)=O [SP-40] (Ac-YADAIFTASYRKVLAQLSARKALQDI[Nle]SR-NH2),1 to 10 nM
2,CCCC[C@H](NC(=O)[C@@H](NC(=O)[C@H](CC(=O)O)NC(=O)[C@H](CCC(N)=O)NC(=O)[C@H](CC(C)C)NC(=O)[C@]1(C)CCCC=CCCCCCC[C@@](C)(NC(=O)[C@H](CC(C)C)NC(=O)[C@@H](NC(=O)[C@H](CCCCN)NC(=O)[C@H](CCCNC(=N)N)NC(=O)[C@H](Cc2ccc(O)cc2)NC(=O)[C@H](CO)NC(=O)[C@H](C)NC(=O)[C@@H](NC(=O)[C@H](Cc2ccccc2)NC(=O)[C@@H](NC(=O)[C@H](C)NC(=O)[C@H](CC(=O)O)NC(=O)[C@H](C)NC(=O)[C@H](Cc2ccc(O)cc2)NC)[C@@H](C)CC)[C@@H](C)O)C(C)C)C(=O)N[C@@H](CCC(N)=O)C(=O)N[C@@H](CC(C)C)C(=O)N[C@@H](CO)C(=O)N[C@@H](C)C(=O)N[C@@H](CCCNC(=N)N)C(=O)N[C@@H](CCCCN)C(=O)N1)[C@@H](C)CC)C(=O)N[C@@H](CO)C(=O)N[C@@H](CCCNC(=N)N)C(N)=O [SP-27] (H-[NMeY]ADAIFTASYRKVL[R8]QLSARK[S5]LQDI[Nle]SR-NH2; staple 15-22),1 to 10 nM
3,CCCC[C@H](NC(=O)[C@@H](NC(=O)[C@H](CC(=O)O)NC(=O)[C@H](CCC(N)=O)NC(=O)[C@]1(C)CCCC=CCCCCCC[C@@](C)(NC(=O)[C@H](C)NC(=O)[C@H](CC(C)C)NC(=O)[C@@H](NC(=O)[C@H](CCCCN)NC(=O)[C@H](CCCNC(=N)N)NC(=O)[C@H](Cc2ccc(O)cc2)NC(=O)[C@H](CO)NC(=O)[C@H](C)NC(=O)[C@@H](NC(=O)[C@H](Cc2ccccc2)NC(=O)[C@@H](NC(=O)[C@H](C)NC(=O)[C@H](CC(=O)O)NC(=O)[C@H](C)NC(=O)[C@H](Cc2ccc(O)cc2)NC)[C@@H](C)CC)[C@@H](C)O)C(C)C)C(=O)N[C@@H](CC(C)C)C(=O)N[C@@H](CO)C(=O)N[C@@H](C)C(=O)N[C@@H](CCCNC(=N)N)C(=O)N[C@@H](CCCCN)C(=O)N[C@@H](C)C(=O)N1)[C@@H](C)CC)C(=O)N[C@@H](CO)C(=O)N[C@@H](CCCNC(=N)N)C(N)=O [SP-28] (H-[NMeY]ADAIFTASYRKVLA[R8]LSARKA[S5]QDI[Nle]SR-NH2; staple 16-23),1 to 10 nM
4,CCCC[C@H](NC(=O)[C@@H](NC(=O)[C@H](CC(=O)O)NC(=O)[C@H](CCC(N)=O)NC(=O)[C@H](CC(C)C)NC(=O)[C@H](C)NC(=O)[C@H](CCCCN)NC(=O)[C@H](CCCNC(=N)N)NC(=O)[C@H](C)NC(=O)[C@]1(C)CCCC=CCCC[C@](C)(NC(=O)[C@@H](NC(=O)[C@H](CCCCN)NC(=O)[C@H](CCCNC(=N)N)NC(=O)[C@H](Cc2ccc(O)cc2)NC(=O)[C@H](CO)NC(=O)[C@H](C)NC(=O)[C@@H](NC(=O)[C@H](Cc2ccccc2)NC(=O)[C@@H](NC(=O)[C@H](C)NC(=O)[C@H](CC(=O)O)NC(=O)[C@H](C)NC(=O)[C@H](Cc2ccc(O)cc2)NC)[C@@H](C)CC)[C@@H](C)O)C(C)C)C(=O)N[C@@H](C)C(=O)N[C@@H](CCC(N)=O)C(=O)N[C@@H](CC(C)C)C(=O)N1)[C@@H](C)CC)C(=O)N[C@@H](CO)C(=O)N[C@@H](CCCNC(=N)N)C(N)=O [SP-13] (H-[NMeY]ADAIFTASYRKV[S5]AQL[S5]ARKALQDI[Nle]SR-NH2; staple 14-18),10 to 25 nM
5,CCCC[C@H](NC(=O)[C@@H](NC(=O)[C@H](CC(=O)O)NC(=O)[C@H](CCC(N)=O)NC(=O)[C@H](CC(C)C)NC(=O)[C@H](C)NC(=O)[C@H](CCCCN)NC(=O)[C@H](CCCNC(=N)N)NC(=O)[C@H](C)NC(=O)[C@H](CO)NC(=O)[C@H](CC(C)C)NC(=O)[C@H](CCC(N)=O)NC(=O)[C@H](C)NC(=O)[C@H](CC(C)C)NC(=O)[C@@H](NC(=O)[C@H](CCCCN)NC(=O)[C@H](CCCNC(=N)N)NC(=O)[C@H](Cc1ccc(O)cc1)NC(=O)[C@H](CO)NC(=O)[C@H](C)NC(=O)[C@@H](NC(=O)[C@H](Cc1ccccc1)NC(=O)[C@@H](NC(=O)[C@H](C)NC(=O)[C@H](CC(=O)O)NC(=O)[C@H](C)NC(=O)[C@H](Cc1ccc(O)cc1)NC)[C@@H](C)CC)[C@@H](C)O)C(C)C)[C@@H](C)CC)C(=O)N[C@@H](CO)C(=O)N[C@@H](CCCNC(=N)N)C(N)=O [SP-35] (H-[NMeY]ADAIFTASYRKVLAQLSARKALQDI[Nle]SR-NH2),≤ 1 nM
6,CCCC[C@H](NC(=O)[C@@H](NC(=O)[C@H](CC(=O)O)NC(=O)[C@H](CCC(N)=O)NC(=O)[C@H](CC(C)C)NC(=O)[C@H](C)NC(=O)[C@H](CCCCN)NC(=O)[C@H](CCCNC(=N)N)NC(=O)[C@H](C)NC(=O)[C@H](CO)NC(=O)[C@H](CC(C)C)NC(=O)[C@H](CCC(N)=O)NC(=O)[C@]1(C)CCCC=CCCCCCC[C@@](C)(NC(=O)[C@@H](NC(=O)[C@H](Cc2ccccc2)NC(=O)[C@@H](NC(=O)[C@H](C)NC(=O)[C@H](CC(=O)O)NC(=O)[C@H](C)NC(=O)[C@H](Cc2ccc(O)cc2)NC)[C@@H](C)CC)[C@@H](C)O)C(=O)N[C@@H](CO)C(=O)N[C@@H](Cc2ccc(O)cc2)C(=O)N[C@@H](CCCNC(=N)N)C(=O)N[C@@H](CCCCN)C(=O)N[C@@H](C(C)C)C(=O)N[C@@H](CC(C)C)C(=O)N1)[C@@H](C)CC)C(=O)N[C@@H](CO)C(=O)N[C@@H](CCCNC(=N)N)C(N)=O [SP-25] (H-[NMeY]ADAIFT[R8]SYRKVL[S5]QLSARKALQDI[Nle]SR-NH2; staple 8-15),1 to 10 nM

# Results, then the compound that gave them:
row,EC50,SMILES
1,≤ 1 nM,CCCC[C@H](NC(=O)[C@@H](NC(=O)[C@H](CC(=O)O)NC(=O)[C@H](CCC(N)=O)NC(=O)[C@H](CC(C)C)NC(=O)[C@H](C)NC(=O)[C@H](CCCCN)NC(=O)[C@H](CCCNC(=N)N)NC(=O)[C@H](C)NC(=O)[C@H](CO)NC(=O)[C@H](CC(C)C)NC(=O)[C@H](CCC(N)=O)NC(=O)[C@H](C)NC(=O)[C@H](CC(C)C)NC(=O)[C@@H](NC(=O)[C@H](CCCCN)NC(=O)[C@H](CCCNC(=N)N)NC(=O)[C@H](Cc1ccc(O)cc1)NC(=O)[C@H](CO)NC(=O)[C@H](CCC(N)=O)NC(=O)[C@@H](NC(=O)[C@H](Cc1ccccc1)NC(=O)[C@@H](NC(=O)[C@H](C)NC(=O)[C@H](CC(=O)O)NC(=O)[C@H](C)NC(=O)[C@H](Cc1ccc(O)cc1)NC)[C@@H](C)CC)[C@@H](C)O)C(C)C)[C@@H](C)CC)C(=O)N[C@@H](CO)C(=O)N[C@@H](CCCNC(=N)N)C(N)=O [SP-43] (H-[NMeY]ADAIFTQSYRKVLAQLSARKALQDI[Nle]SR-NH2)
2,10 to 25 nM,CCCC[C@H](NC(=O)[C@@H](NC(=O)[C@H](CC(=O)O)NC(=O)C(C)(C)NC(=O)[C@H](CC(C)C)NC(=O)[C@H](C)NC(=O)[C@H](CCCCN)NC(=O)[C@H](CCCNC(=N)N)NC(=O)[C@]1(C)CCCC=CCCCCCC[C@@](C)(NC(=O)[C@H](CCCNC(=N)N)NC(=O)[C@H](Cc2ccc(O)cc2)NC(=O)[C@H](CO)NC(=O)C(C)(C)NC(=O)[C@@H](NC(=O)[C@H](Cc2ccccc2)NC(=O)[C@@H](NC(=O)[C@H](C)NC(=O)[C@H](CC(=O)O)NC(=O)[C@H](C)NC(=O)[C@H](Cc2ccc(O)cc2)NC)[C@@H](C)CC)[C@@H](C)O)C(=O)N[C@@H](C(C)C)C(=O)N[C@@H](CC(C)C)C(=O)N[C@@H](C)C(=O)N[C@@H](CCC(N)=O)C(=O)N[C@@H](CC(C)C)C(=O)N[C@@H](CO)C(=O)N1)[C@@H](C)CC)C(=O)N[C@@H](CO)C(=O)N[C@@H](CCCNC(=N)N)C(N)=O [SP-67] (H-[NMeY]ADAIFT[Aib]SYR[R8]VLAQLS[S5]RKAL[Aib]DI[Nle]SR-NH2; staple 12-19)
3,10 to 25 nM,CCCC[C@H](NC(=O)[C@@H](NC(=O)[C@H](CC(=O)O)NC(=O)[C@H](CCC(N)=O)NC(=O)[C@H](CC(C)C)NC(=O)[C@H](C)NC(=O)[C@H](CCCCN)NC(=O)[C@H](CCCNC(=N)N)NC(=O)[C@]1(C)CCCC=CCCCCCC[C@@](C)(NC(=O)[C@H](CCCNC(=N)N)NC(=O)[C@H](Cc2ccc(O)cc2)NC(=O)[C@H](CO)NC(=O)[C@H](C)NC(=O)[C@@H](NC(=O)[C@H](Cc2ccccc2)NC(=O)[C@@H](NC(=O)[C@H](C)NC(=O)[C@H](CC(=O)O)NC(=O)[C@H](C)NC(=O)[C@H](Cc2ccc(O)cc2)NC)[C@@H](C)CC)[C@@H](C)O)C(=O)N[C@@H](C(C)C)C(=O)N[C@@H](CC(C)C)C(=O)N[C@@H](C)C(=O)N[C@@H](CCC(N)=O)C(=O)N[C@@H](CC(C)C)C(=O)N[C@@H](CO)C(=O)N1)[C@@H](C)CC)C(=O)N[C@@H](CO)C(=O)N[C@@H](CCCNC(=N)N)C(N)=O [SP-57]
